Source: patent publication US11357857B2, “Excipient compounds for protein processing” (COMERA LIFE SCIENCES, INC., priority 2014, dated 2022)
Values joined by “and” are separate entries in the source; they are usually repeats but may differ in a detail not shown here. Equal values may be shown once. Where a name gives a salt, the structure may show the parent alone. Read-outs that look alike come from different tables or passages of the source. One block for each compound: values may come before it.

How the values were obtained:
[1] = tested on: bovine gamma globulin (BGG); assay: Normalized viscosity of 280 mg/mL BGG in 20 mM histidine with excipients A/B (Example 20); type: physicochemical; conditions: no B
Text: Excipient compounds for this Example are listed below in Table 11.

[2] = tested on: bovine gamma globulin (BGG); assay: Viscosity of 280 mg/mL BGG formulations in 50 mM histidine HCl pH 6 with excipient, cone and plate viscometer (Examples 1, 2, 4-6); type: physicochemical
[3] = tested on: bovine gamma globulin (BGG)
[4] = Viscosity of PEG (Mw ~1,000,000) solution in Tris buffer with excipient (Examples 12-13); type: physicochemical
[5] = Caffeine solubility testing with co-solutes at ambient temperature (Examples 32-33); conditions: for Observation of caffeine dissolution: caffeine 80 mg/mL
Protocol: Prepared solutions were used either neat or diluted with deionized water.
A small magnetic stir bar was added to the vial, and the solution was allowed to mix vigorously on a stir plate for about 10 minutes.

Compound: Arg-Pro [Dipeptide RP (Arg-Pro)]
Viscosity ([2]; excipient 50 mg/mL): 51 cP | Viscosity Reduction ([2]; excipient 50 mg/mL): 35% | Viscosity ([2]; excipient 100 mg/mL): 53 cP | Viscosity Reduction ([2]; excipient 100 mg/mL): 33%

Compound: CCCCn1cc[n+](C)c1.[Cl-] [1-butyl-3-methylimidazolium chloride]
Viscosity Reduction ([3]; excipient 100 mg/mL): 52%

Compound: O=C(O)CN(CCN(CC(=O)O)CC(=O)O)CC(=O)O [EDTA/K salt, ethylenediaminetetraacetic acid (EDTA)]
Viscosity ([4]; excipient 20 mg/mL): 76.9 cP | Viscosity Reduction ([4]; excipient 20 mg/mL): 27% | Viscosity ([4]; excipient 40 mg/mL): 67.1 cP | Viscosity Reduction ([4]; excipient 40 mg/mL): 36%

Compound: O=C1CCCN1 [2-Pyrrolidinone]
Viscosity Reduction ([3]; excipient 60 mg/mL): 32%

Compound: Leu-Glu [Dipeptide LE (Leu-Glu)]
Viscosity ([2]; excipient 50 mg/mL): 72 cP | Viscosity Reduction ([2]; excipient 50 mg/mL): 9% | Viscosity ([2]; excipient 100 mg/mL): 87 cP | Viscosity Reduction ([2]; excipient 100 mg/mL): −10%

Compound: O=C([O-])c1cccnc1.[Na+] [Nicotinic acid, sodium salt]
Viscosity Reduction ([3]; excipient 100 mg/mL): 46%

Compound: O=C(O)[C@H](O)[C@@H](O)[C@H](O)[C@H](O)CO [D-Gluconic acid/Na salt, D-Gluconic acid]
Viscosity ([4]; excipient 20 mg/mL): 86.6 cP | Viscosity Reduction ([4]; excipient 20 mg/mL): 17% | Viscosity ([4]; excipient 40 mg/mL): 81.24 cP | Viscosity Reduction ([4]; excipient 40 mg/mL): 23%

Compound: dimethylcyclohexylammonium hydroxybenzoate [DMCHA-hydroxybenzoate]
Viscosity ([2]; excipient 67 mg/mL): 46 cP | Viscosity Reduction ([2]; excipient 67 mg/mL): 42% | Viscosity ([2]; excipient 92 mg/mL): 42 cP | Viscosity Reduction ([2]; excipient 92 mg/mL): 47%

Compound: CC1=NCCN1.Cl [2-methyl-2-imidazoline HCl]
Normalized Viscosity ([3]; excipient 60 mg/mL): 0.43 | Viscosity Reduction ([3]; excipient 60 mg/mL): 57%

Compound: O=C(O)CCCC[C@@H]1SC[C@@H]2NC(=O)N[C@@H]21 [Biotin]
Viscosity Reduction ([3]; excipient 20 mg/mL): 31%

Compound: Nc1ncnc2c1ncn2[C@@H]1O[C@H](COP(=O)(O)O)[C@@H](O)[C@H]1O [Adenosine monophosphate]
Viscosity ([2]; excipient 26 mg/mL): 47 cP | Viscosity Reduction ([2]; excipient 26 mg/mL): 41% | Viscosity ([2]; excipient 50 mg/mL): 66 cP | Viscosity Reduction ([2]; excipient 50 mg/mL): 16%

Compound: O=C([O-])c1ccccc1O.[Na+] [Sodium salicylate]
Viscosity [2]: 57 cP and 52 cP

Compound: Nc1cccnc1 [3-aminopyridine]
Viscosity Reduction ([3]; excipient 50 mg/mL): 49%

Compound: Tyr-Glu [Dipeptide YE (Tyr-Glu)]
Viscosity ([2]; excipient 50 mg/mL): 55 cP | Viscosity Reduction ([2]; excipient 50 mg/mL): 30% | Viscosity ([2]; excipient 100 mg/mL): 68 cP | Viscosity Reduction ([2]; excipient 100 mg/mL): 14%

Compound: NCCN [Ethylene diamine]
Viscosity ([4]; excipient 20 mg/mL): 83.9 cP | Viscosity Reduction ([4]; excipient 20 mg/mL): 15% | Viscosity ([4]; excipient 40 mg/mL): 84.7 cP | Viscosity Reduction ([4]; excipient 40 mg/mL): 17%

Compound: CC1=CC(=O)NS(=O)(=O)O1 [Acesulfame K, acesulfame potassium]
Observation of caffeine dissolution ([5]; co-solute 80 mg/mL): DND | Normalized Viscosity ([1]; excipient A 40 mg/mL): 0.61 | Normalized Viscosity ([1]; excipient A 80 mg/mL): 0.44

Compound: CN(C)CCCN [DMAPA-HCl, dimethylaminopropylamine]
Viscosity ([2]; excipient 40 mg/mL): 54 cP | Viscosity Reduction ([2]; excipient 40 mg/mL): 32% | Viscosity ([2]; excipient 87 mg/mL): 57 cP | Viscosity Reduction ([2]; excipient 87 mg/mL): 28%

Continued, values first:

Normalized Viscosity ([1]; excipient A 10 mg/mL): 0.84
Compound: Cn1c(=O)c2[nH]cnc2n(C)c1=O [Theophylline]

Observation of caffeine dissolution ([5]; co-solute 45 mg/mL): DND | Dissolution of caffeine enabled relative to reported solubility limit ([5]; co-solute in water, ambient temperature (about 23 C)): at least about four times
Compound: O=C1NS(=O)(=O)c2ccccc21.[Na] [Saccharin, Na, saccharin sodium salt]

Viscosity Reduction ([3]; excipient 50 mg/mL): 33%
Compound: CCN(CC)C(=O)c1cccnc1 [N,N-diethyl nicotinamide]

Viscosity ([4]; excipient 12 mg/mL): 79.4 cP | Viscosity Reduction ([4]; excipient 12 mg/mL): 24% | Viscosity ([4]; excipient 24 mg/mL): 71.6 cP | Viscosity Reduction ([4]; excipient 24 mg/mL): 32%
Compound: CC(O)(P(=O)(O)O)P(=O)(O)O [etidronic acid/Na salt, etidronic acid]

Viscosity Reduction ([3]; excipient 50 mg/mL): 21%
Compound: Cn1cncc1C[C@H](NC(=O)CCN)C(=O)O.O=[N+]([O-])O [L-Anserine nitrate]

Viscosity ([4]; excipient 12 mg/mL): 80.5 cP | Viscosity Reduction ([4]; excipient 12 mg/mL): 23% | Viscosity ([4]; excipient 24 mg/mL): 71.91 cP | Viscosity Reduction ([4]; excipient 24 mg/mL): 31%
Compound: CC(O)(P(=O)(O)O)P(=O)(O)O [etidronic acid/K salt, etidronic acid]

Viscosity Reduction ([3]; excipient 55 mg/mL): 43%
Compound: O=C([O-])C(=O)Cc1ccccc1.[Na+] [Sodium phenylpyruvate]

Viscosity ([4]; excipient 20 mg/mL): 83.9 cP | Viscosity Reduction ([4]; excipient 20 mg/mL): 18% | Viscosity ([4]; excipient 40 mg/mL): 71.7 cP | Viscosity Reduction ([4]; excipient 40 mg/mL): 30%
Compound: O=P(O)(O)OCC(O)CO (centres unmarked) [glycerol phosphate]
